Laboratory results: patent publication EP4578444A1, “APPLICATION OF BETA-CARYOPHYLLENE FOR TARGETED EPIGENETIC REGULATION AND POTENTIAL PREVENTION OF WATER-OSMOTIC CONDITIONS OF THE MUCOUS MEMBRANES AND EPITHELIA” (SkyLab AG, priority 2023, dated 2025)
In brackets after ≈: the same amount, converted by molar mass.

How the values were obtained:
[1] = MTT cytotoxicity / cell viability of keratinocytes; type: cell-based; settings: keratinocytes, throughout the selected concentration range (0.01-0.3 wt.%), threshold value of 70%, read-out: viability of skin and epithelial keratinocytes
Procedure: (§1) Beta-caryophyllene was studied for cytotoxicity and assessed for viability of skin and mucous membrane keratinocytes to determine the maximum permissible concentration for external and local application.
(§2) Cell viability was determined colorimetrically using MTT stain (Sigma Chemical, St. Louis, Mo.). The preparation was treated for the test in dimethylsulphoxide culture medium and added to a 96-well plate at serial dilutions ranging from 1.000 to 0.0032 mg/mL using a dilution factor of 3.16. Pre-culture was carried out for 48 hours before the test. Then MTT was added to the culture at a concentration of 0.75 mg/mL (100 µl/well) and incubated for another 4 hours. The contents of the well were removed, and 100 µl of isopropanol was added to solubilize the formed formazan crystals. Absorbance was determined in each well at 570 nm using a Multiskan GO monochromator (Thermo Scientific, Finland). Cell viability was expressed as a percentage and calculated by the equation: % Viable cells = (Absorbance of evaluated product incubated cells)/(Control absorbance) × 100 [formula]
(§3) Three biological replicates were made. Statistical data processing was carried out to calculate the mean, standard deviation, and trend for each biological replicate. For the statistical evaluation ANOVA test was used allowing the measurement of variation of the results, comparing the data between all the groups. […]

[2] = tested on: skin and mucous membrane keratinocytes; assay: MTT cytotoxicity / cell viability of keratinocytes; type: cell-based; settings: 70% cell survival
Procedure: as §1, §2, §3

C=C1CC/C=C(\C)CC[C@@H]2[C@@H]1CC2(C)C [Beta-caryophyllene]
viability [1]: > 70% | EC70 [2]: 316.5 µg/mL (≈ 1550 µM)
